Source: patent publication JPH09183729A, “凍結乾燥ウラシルを含有する抗腫瘍医薬組成物” (priority 1995, dated 1997)
In brackets after ≈: the same amount, converted by molar mass.

Experiments:
[1] = FT compared with 5-FU; UFT compared with 5-FU, FT and other antitumour drugs; cited from earlier work
physchem = settings: water, saturated solution concentration in water
[2] = cited from earlier work

O=c1[nH]cc(F)c(=O)[nH]1 [5-FU, 5-fluorouracil]
toxicity / side effects [1]: 骨髄機能抑制などの重篤な副作用があり

O=c1cc[nH]c(=O)[nH]1 [ウラシル]
solubility (physchem): ~14.7 mg/mL (≈ 131 mM)
solubility in water ([2]; 25℃ water, Merck Index): 0.358 g/100g
solubility in alcohol and ether ([2]; alcohol and ether): 難溶
solubility in cold water ([2]; cold water): わずかに溶け
